[ ]: non-standard residue; d: D form. Abu = CC[C@H](N)C(=O)O; Ahx = NCCCCCC(=O)O
Experiments:
MDSC and macrophages = test: In vivo specificity of 4PD in CT26 bearing mice (multicolor flow cytometry of tumor, spleen, liver); parameters: species or system mouse; conditions: for Alexa555-shRNA accumulation in cell subsets: with cardiolipin
Method: Mice bearing the CT26 colon carcinoma (0.7 cm in diameter) were injected with Alexa555-siRNA loaded onto 4PD (black bar) or, as control, onto G5 PAMAM dendrimer functionalized with a random peptide. Two hours later, mice were sacrificed. Single cell suspensions from the spleen, the tumor and the liver were labeled with antibodies specific for Gr1, CD11b, F4/80, CD11c, CD3, CD4, and CD8 to identify granulocytic MDSC (gMDSC), monocytic MDSC (mMDSC), macrophages, dendritic cells, and helper and cytotoxic T cell. Fluorescence in the Alexa555 channel in each population was evaluated by FACSas a read out of 4PD mediated transfection.
In order to evaluate 4PD specificity in vivo, Balb/c mice bearing the CT26 colon carcinoma were injected intravenously with 20 ug of Alexa555-shRNA loaded into the 4PD platform with cardiolipin. Alexa 555-shRNA loaded dendrimer coupled with control peptide (a mixture of random peptides) were used as control. Cardiolipin was added to the complexes as described above (FIG. 3). Two hours after 4PD/Alexa555-shRNA systemic injection, mice were sacrificed and single cell suspension from the tumor, the spleen, and the liver was analyzed by multicolor flow cytometry (FIG. 10). In particular, cells were stained with CD11b, Gr1, CD11c and F4/80 specific antibodies to identify granulocytic− (g−) MDSCs (CD11bGr1high), monocytic− (m−) MDSCs (CD11b+GR1−), CD11b+Gr-1 negative myeloid cells, F4/80+macrophages, and CD11chigh DC. Additionally, cells were stained with antibodies specific for CD3, CD8, and CD4 to recognize T cell subsets.

human MDSCs = test: Binding of 4PD/Alexa555-shRNA complexes to PBMCs from HNSCC patients by FACS; type: cell-based; conditions: 30 minutes at 4° C.
Method: Transfection was evaluated by FACS. In FIG. 6A, the red dot represent the cells transfected with the 4PD nanoparticles (i.e., CD33+IL4Rα+CD11b+CD14+HLADRlow monocytes/MDSC). FIG. 6B depicts the Alexa555 fluorescence in the indicated gates. In FIG. 6C, apparent Kd was calculated by incubating a fixed number of PBMCs with the indicated concentration of Alexa555shRNA/4PD complexes for 10 minutes at 4° C. and by evaluating the MFI in the relevant channel by FACS.
Next, the ability of 4PD to bind to the native IL4Rα receptor expressed on a cell membrane was evaluated. To this aim, the capacity of 4PD to recognize CD11b+myeloid cells isolated from tumor bearing mice was evaluated. Briefly, CD11b+MDSC were magnetically isolated from the spleen of Balb/c mice challenged 2 weeks before with the CT26 colon carcinoma. Purified cells were incubated at 37° C. for 15 minutes with Alexa555-shRNA loaded onto 4PD or dendrimers conjugated with scramble peptide as negative control. […] Cells were harvested and analyzed by FACS (FIG. 5B) or by fluorescence microscopy (FIG. 5C) to determine Alexa-555-shRNA transfection. […] Similarly (FIG. 6B), Alexa555 fluorescence can be found only on CD33+IL4Rα+ MDSCs (black histogram) but not in other subsets as the IL4Rα-CD33+ myeloid cells (purple) or the non-myeloid (CD33-IL4Rα−) cells. […]

CD11b+MDSC = test: Alexa555-shRNA transfection of CD11b+ MDSC from CT26 tumor bearing mice (FACS, fluorescence microscopy); type: cell-based, mouse; conditions: 15 minutes at 37° C., then 2 hours; FACS and fluorescence microscopy
Method: MDSC isolated from CT26 tumor bearing mice were transfected with: 1) Alexa555-siRNA alone (gray filled line in FIGS. 5A and 5B), 2) Alexa555-siRNA Dendrimer (black line, bottom panel, FIG. 5B) or 3) Alexa555-siRNA IL4Rα targeting dendrimer (black line, top panel, FIG. 5A). 45 minutes later cells were analyzed by immune-fluorescence microscopy (FIG. 5C) and by FACS (FIG. 5B) after gating on the alive (DAPI negative) cells.
Next, the ability of 4PD to bind to the native IL4Rα receptor expressed on a cell membrane was evaluated. To this aim, the capacity of 4PD to recognize CD11b+myeloid cells isolated from tumor bearing mice was evaluated. Briefly, CD11b+MDSC were magnetically isolated from the spleen of Balb/c mice challenged 2 weeks before with the CT26 colon carcinoma. Purified cells were incubated at 37° C. for 15 minutes with Alexa555-shRNA loaded onto 4PD or dendrimers conjugated with scramble peptide as negative control. After the incubation, cells were washed and incubated for an additional 2 hours at 37° C. in CTL media. Cells were harvested and analyzed by FACS (FIG. 5B) or by fluorescence microscopy (FIG. 5C) to determine Alexa-555-shRNA transfection. […] Similarly (FIG. 6B), Alexa555 fluorescence can be found only on CD33+IL4Rα+ MDSCs (black histogram) but not in other subsets as the IL4Rα-CD33+ myeloid cells (purple) or the non-myeloid (CD33-IL4Rα−) cells.

[1] = system: Bone marrow cells from C57Bl/6 mice; test: Transfection of early hematopoietic progenitor cells from bone marrow (flow cytometry); type: cell-based, mouse
Method: FIG. 24B provides histograms that how the binding of 4PD (open histogram) over the control (filled histogram). The dot blot on the right summarize the binding from ten independent assays.
Bone marrow cells from C57Bl/6 mice were incubated for 10 minutes with 4PD loaded with Alexafluor 555 washed, counterstained with anti-lineage cocktail, anti-CD45, anti-Sca1, anti ckit, anti-CD34, anti-CD16/CD32, anti-CD150 and anti-CD48 antibodies, and analyzed by flow cytometry.
Importantly, the viability of the cells after transfection was higher than 95%.

## 4PD: G5 PAMAM dendrimer conjugated by maleidoamide chemistry to the IL4Rα targeting peptide of SEQ ID NO: 1 (Ac-LQRLFRAFR[Abu]LD[Ahx]C-NH2; also: Cys14 joined by maleimidobenzoyl thioether to G5 PAMAM dendrimer)
MDSC and macrophages; non-myeloid leukocytes subsets, 2 hours after i.v. injection
  Alexa555-shRNA binding: Only non-specific level of binding was observed
MDSC and macrophages; spleen and liver, 2 hours after i.v. injection
  Alexa555-shRNA accumulation in cell subsets: accumulates mostly in F4/80+ tumor educated macrophages, and CD11b+GR1− myeloid cells
MDSC and macrophages; tumor, 2 hours after i.v. injection of 20 ug Alexa555-shRNA
  Alexa555-shRNA accumulation in cell subsets: accumulates mostly in the tumor associated gMDSCs, mMDSC, macrophages and CD11b+Gr1− myeloid cells
Human MDSCs
  cells bound by 4PD among PBMCs: binds preferentially to CD11b+CD14+CD33+IL4Rα+HLADRdim cells
CD11b+MDSC
  Alexa-555-shRNA transfection: can promote the internalization of Alexa-555 in the cells
[1]; HSC, HPC1, HPC2, MPP, CMP, GMP, 10 minutes incubation
  transfection: able to efficiently transfect
[1]; bone marrow cells
  viability of the cells after transfection: higher than 95%
[1]; megakariocytes-erythrocyte precursors
  transfection: at lower level

— US11364305B2, “Nanoparticle conjugates and uses thereof” (UNIVERSITY OF MIAMI, priority 2015, dated 2022)
